From patent publication US4539206A, “Topical compositions containing copper (II) complexes of 3,5-dioxo-pyrazolidine derivatives and methods of combatting inflammation with them” (Alcusal Incorporated Pty. Ltd., priority 1981, dated 1985)
Where two headings read alike, the source gives them in different places.

Assays:
[1] = Bio-distribution of ^64 Cu(PB)2.x DMSO after topical application to rats; format: in vivo, male white rats; settings: for Bio-distribution of ^64 Cu as % of Original Applied, Faeces: assumed faecal output; for Bio-distribution of ^64 Cu as % of Original Applied, Blood (20 ml): assumed total blood volume; for Bio-distribution of ^64 Cu as % of Original Applied, Urine: assumed urine output
Experimental: (1) The copper (II) phenylbutazone complex labelled with ^64 Cu was prepared as follows: Radioactive copper (II) acetate containing 3 mCi of ^64 Cu (A.A.E.C. Lucas Heights) was mixed with copper (II) acetate monohydrate (0.250 g), phenylbutazone (0.964 g) and dissolved in DMSO (10 ml). Glycerol (2.5 ml) was added later.
Six male white rats (average weight 250 g) were anaesthetised with halothane and an area of skin (ca 20 cm^2) immediately below the neck was shaved with electric hair clippers. Two aliquots (each 0.75 ml) were applied to each rat, whilst anaesthetised, over a period of one hour.
Each rat was placed separately in an experimental cage which permitted collection of both urine and faeces. At times of 6, 24 and 48 hours after topical application, two rats were anaesthetised with ether and euthenased by decapitation in a guillotine. Each organ except the thymus, spleen and the adrenals were cut into two samples for more accurate counting. This was done on a Packard automatic γ spectrometer for periods from 1 to 10 minutes.
All counts were corrected to zero time per gram of wet tissue. After 24 and 48 hours, the faeces were dry and the activity in them is not recorded in FIG. 3.
In Table 1, the results for the location in the rats of the ^64 Cu activity at 6, 24 and 48 hours after topical application are shown.

[2] = tested on: sodium carrageenan-induced paw oedema; settings: 5 ml/kg, 0.1 M copper (II) acetate containing 0.25 M phenylbutazone in DMSO, controls DMSO
Experimental: (§1) We have carried out assays for acute anti-inflammatory and anti-arthritic activities by procedures described previously in W. R. Walker, S. J. Beveridge and M. W. Whitehouse, "Anti-inflammatory Activity of a Dermally Applied Copper Salicylate Preparation (Alcusal)", Agents and Actions 10, 38 (1980).
(§2) (a) Male Wistar rats were shaved (ca 20 cm^2) behind the neck and a solution of 0.1 M copper (II) acetate containing 0.25 M phenylbutazone in DMSO was applied (5 ml/kg). The first application was made 2.5 hr before injecting sodium carrageenan solution into the paw (a 0.1 ml injection delivering 1 mg in 0.15 M NaCl) to induce oedema. A second application of the copper phenylbutazone, if made, was at 1.5 hr before the carrageenan was injected.
(§3) The swelling was measured unidimensionally as increase in paw thickness after 2 and 4 hrs using a micrometer screw gauge. Controls were treated with DMSO only.

[3] = tested on: hydroxylapatite-induced paw swelling; settings: applied ×2; hydroxylapatite 50 mg/ml, 0.15 ml injected
Experimental: as §1, §2, §3

[4] = tested on: arthritis induced by arthritogenic adjuvant (M. tuberculosis in squalane); test: anti-arthritic activity in established adjuvant arthritis, topical application; format: in vivo, PVG x DA rats; settings: day 12 to day 16, once daily 5 ml/kg for 4 days, means ± standard error; for increase in paw thickness (mm), tail: DMSO controls 0.9 ± 0.2; for increase in paw thickness (mm), rear paws: DMSO controls 2.2 ± 0.1
[5] = Cu^2+ + 2HPB = [Cu(PB)2] + 2H^+, room temperature, DMSO, absorbance at 430 nm
Experimental: The following solutions were prepared in DMSO using stock solutions of 0.01 M copper (II) acetate (A) and 0.20 M phenylbutazone (B)
and the spectra were measured using a Varian Techtron 634S UV-visible spectrophotometer and 1 cm cells.
In FIG. 2, a plot of absorbance (arbitrary scale) at 430 nm versus molar ratio of phenylbutazone (HPB) to copper has been made. […]

[6] = applied ×1 (2.5 hr before carrageenan)
[7] = applied ×2 (2.5 and 1.5 hr before carrageenan)

CCCC[c-]1c(=O)n(-c2ccccc2)n(-c2ccccc2)c1=O.CCCC[c-]1c(=O)n(-c2ccccc2)n(-c2ccccc2)c1=O.[Cu+2] [[Cu(PB)2].x(DMSO), copper (II) di(phenylbutazone)]
absorption after topical application ([1]; result in words): readily enters the bloom stream | dermal penetration ([1]; result in words): excellent dermal penetration | % inhibition of paw swelling at 2 hr [2, 6]: 34% | % inhibition of paw swelling at 4 hr [2, 6]: 33% | % inhibition of paw swelling at 2 hr [2, 7]: 65% | % inhibition of paw swelling at 4 hr [2, 7]: 71% | % inhibition of paw swelling at 2 hr [3]: 42% | % inhibition of paw swelling at 4 hr [3]: 76% | increase in paw thickness (mm), tail [4]: 0.3 ± 0.2 mm | increase in paw thickness (mm), rear paws [4]: 0.4 ± 0.1 mm | equilibrium constant, log K ([5]; listed as Cu(PB)2. xDMSO): ~4.7 | equilibrium constant, log K ([5]; listed as [Cu(PB)2 ]): ~ 4.7

CCCCC1C(=O)N(c2ccccc2)N(c2ccccc2)C1=O [HPB, phenylbutazone, reference compound]
increase in paw thickness (mm), tail [4]: 0.3 ± 0.1 mm | increase in paw thickness (mm), rear paws [4]: 1.0 ± 0.2 mm

CCCC[c-]1c(=O)n(-c2ccccc2)n(-c2ccccc2)c1=O.CCCC[c-]1c(=O)n(-c2ccccc2)n(-c2ccccc2)c1=O.[64Cu+2] [^64 Cu(PB)2.x DMSO]
Bio-distribution of ^64 Cu as % of Original Applied, Adrenals ([1]; 6 h): -- (less than 0.004%) | Bio-distribution of ^64 Cu as % of Original Applied, Brain ([1]; 6 h): 0.02% | Bio-distribution of ^64 Cu as % of Original Applied, Heart ([1]; 6 h): 0.01% | Bio-distribution of ^64 Cu as % of Original Applied, Kidney ([1]; 6 h): 0.04% | Bio-distribution of ^64 Cu as % of Original Applied, Liver ([1]; 6 h): 6.22% | Bio-distribution of ^64 Cu as % of Original Applied, Skin (application site) ([1]; 6 h): 5.34% | Bio-distribution of ^64 Cu as % of Original Applied, Spleen ([1]; 6 h): 0.01% | Bio-distribution of ^64 Cu as % of Original Applied, Thymus ([1]; 6 h): 0.01% | Bio-distribution of ^64 Cu as % of Original Applied, Faeces ([1]; 6 h): 0.07% | Bio-distribution of ^64 Cu as % of Original Applied, Blood (20 ml) ([1]; 6 h): 0.09% | Bio-distribution of ^64 Cu as % of Original Applied, Urine ([1]; 6 h): 0.04% | Bio-distribution of ^64 Cu as % of Original Applied, Adrenals ([1]; 24 h): -- (less than 0.004%) | Bio-distribution of ^64 Cu as % of Original Applied, Brain ([1]; 24 h): 0.01% | Bio-distribution of ^64 Cu as % of Original Applied, Heart ([1]; 24 h): -- (less than 0.004%) | Bio-distribution of ^64 Cu as % of Original Applied, Kidney ([1]; 24 h): 0.04% | Bio-distribution of ^64 Cu as % of Original Applied, Liver ([1]; 24 h): 0.17% | Bio-distribution of ^64 Cu as % of Original Applied, Skin (application site) ([1]; 24 h): 3.81% | Bio-distribution of ^64 Cu as % of Original Applied, Spleen ([1]; 24 h): -- (less than 0.004%) | Bio-distribution of ^64 Cu as % of Original Applied, Thymus ([1]; 24 h): -- (less than 0.004%) | Bio-distribution of ^64 Cu as % of Original Applied, Faeces ([1]; 24 h): 28.9% | Bio-distribution of ^64 Cu as % of Original Applied, Blood (20 ml) ([1]; 24 h): 0.08% | Bio-distribution of ^64 Cu as % of Original Applied, Urine ([1]; 24 h): 0.21% | Bio-distribution of ^64 Cu as % of Original Applied, Adrenals ([1]; 48 h): -- (less than 0.004%) | Bio-distribution of ^64 Cu as % of Original Applied, Brain ([1]; 48 h): 0.01% | Bio-distribution of ^64 Cu as % of Original Applied, Heart ([1]; 48 h): -- (less than 0.004%) | Bio-distribution of ^64 Cu as % of Original Applied, Kidney ([1]; 48 h): 0.04% | Bio-distribution of ^64 Cu as % of Original Applied, Liver ([1]; 48 h): 0.15% | Bio-distribution of ^64 Cu as % of Original Applied, Skin (application site) ([1]; 48 h): 1.02% | Bio-distribution of ^64 Cu as % of Original Applied, Spleen ([1]; 48 h): 0.01% | Bio-distribution of ^64 Cu as % of Original Applied, Thymus ([1]; 48 h): -- (less than 0.004%) | Bio-distribution of ^64 Cu as % of Original Applied, Faeces ([1]; 48 h): 49.9% | Bio-distribution of ^64 Cu as % of Original Applied, Blood (20 ml) ([1]; 48 h): 0.08% | Bio-distribution of ^64 Cu as % of Original Applied, Urine ([1]; 48 h): 0.40% | ^64 Cu found in the faeces ([1]; after two days, topical application, 2880 min): about 50% | clearance of ^64 Cu from the system ([1]; result in words): cleared from the system in several days | activity of ^64 Cu in the skin at the site of application ([1]; result in words, 6 to 48 h): decreases linearly with time
